Data on one compound can be found in patent US4645776A, “N-(dichlorofluoromethylthio)-3,4-dimethylmaleimide and its use as a fungicide” (Bayer Aktiengesellschaft, priority 1984, dated 1987).

Structures are written as SMILES. Values after ≈ are worked out from the molar mass of the structure shown.

In one assay the test system is Aureobasidium pullulans. The assay can be described thus: MIC on agar, Aureobasidium pullulans. It is filed as cell-based. As to conditions: 336 h, beerwort/peptone agar, 28° C., 2 weeks. The protocol:
(§1) N-(Dichlorofluoromethylthio)-3,4-dimethylmaleimide is added in concentrations of 0.1 mg/l to 5,000 mg/l to an agar prepared from beerwort and peptone. After storage at 28° C. and 60 to 70% relative atmospheric humidity for 2 weeks, the MIC is determined. The MIC is the lowest concentration of active compound at which no growth at all of the species of microbe used takes place, and is given in the following table.

A further assay relates to slime organisms. In words: Action against slime organisms. Format: cell-based. Particulars: 504 h; slime organisms (about 10^6 germs/ml), Allens nutrient solution, room temperature, 3 weeks. The protocol: N-(Dichlorofluoromethylthio)-3,4-dimethylmaleimide (dissolved in a little acetone) is used in concentrations of in each case 0.1 to 100 mg/l in Allens nutrient solution (Arch. Mikrobiol. 17, 34 to 53 (1952)), which contains, in 4 l of sterile water, 0.2 g of ammonium chloride, 4.0 g of sodium nitrate, 1.0 g of dipotassium hydrogen phosphate, 0.2 g of calcium chloride, 2.05 g of magnesium sulphate, 0.02 g of iron chloride and 1% of caprolactam. Shortly beforehand, the nutrient solutions are infected with slime organisms (about 10^6 germs/ml) which have been isolated from spinning water circulations used in the production of polyamide. Nutrient solutions which contain the minimum inhibitory concentration (MIC) or higher concentrations of active compound are still completely clear after culture at room temperature for 3 weeks, that is to say the marked increase in microbes and slime formation noticeable after 3 to 4 days in nutrient solutions containing no active compound are absent.

A further assay relates to Sclerophoma pityophila. In words: MIC on agar, Sclerophoma pityophila. It is filed as cell-based. As to conditions: Sydowia polyspora, 336 h, beerwort/peptone agar, 28° C., 2 weeks. Here is the method: as §1
In a further assay the test system is Alternaria tenuis. In words: MIC on agar, Alternaria tenuis. Format: cell-based. Particulars: Alternaria alternata, 336 h, beerwort/peptone agar, 28° C., 2 weeks. Here is the method: as §1
The test system of another assay is Chaetomium globosum. In words: MIC on agar, Chaetomium globosum. It is filed as cell-based. Particulars: 336 h, beerwort/peptone agar, 28° C., 2 weeks. Here is the method:
as §1

A further assay relates to Polyporus versicolor. The assay can be described thus: MIC on agar, Polyporus versicolor. Format: cell-based. Particulars: Trametes versicolor, 336 h, beerwort/peptone agar, 28° C., 2 weeks. Here is the method: as §1
In a further assay the test system is Aspergillus niger. The assay can be described thus: MIC on agar, Aspergillus niger. Format: cell-based. Particulars: 336 h, beerwort/peptone agar, 28° C., 2 weeks. The protocol:
as §1

In a further assay the test system is Penicillium glaucum. In words: MIC on agar, Penicillium glaucum. Format: cell-based. As to conditions: 336 h, beerwort/peptone agar, 28° C., 2 weeks. The protocol: as §1
A further assay relates to Lentinus tigrinus. The assay can be described thus: MIC on agar, Lentinus tigrinus. It is filed as cell-based. As to conditions: 336 h, beerwort/peptone agar, 28° C., 2 weeks. The protocol:
as §1

The subject of the next assay is Coniophora puteana. The assay can be described thus: MIC on agar, Coniophora puteana. Format: cell-based. As to conditions: 336 h, beerwort/peptone agar, 28° C., 2 weeks. Here is the method: as §1
In assay [1] the test system is Aspergillus niger, Aureobasidium pullulans, Alternaria tenuis, Penicillim citrinum, Stachybotrys atra, Paecilamyces varioti, Cladosporium herbarum, Aspergillus …. The assay can be described thus: Test as a paint fungicide (mould-resistance of paint films, Report 219 of the Defense Standards Laboratories). As to conditions: alkyd resin lacquer paint containing 0.8% of compound based on weight of film; also after ageing (running water 24° C. 24 h, fresh air 40° to 60° C. 8 days, dry Xenon test 110 h); evaluated after 3 weeks at 28° to 30° C. The protocol:
The testing is carried out in accordance with the method in Report 219 of the Defense Standards Laboratories Maribyrnong/Australia, as follows: A smooth card is coated on both sides with the paint to be tested and dried at room temperature for 8 days. For ageing, part of the paint film is kept in running water of 24° C. for 24 hours, or aerated with fresh air of 40° to 60° C. for 8 days, or subjected to a dry Xenon test for 110 hours. 5×5 cm sections of the samples thus prepared are placed individually on a glucose nutrient medium in Petri dishes and contaminated with a spore suspension of the following fungi: Aspergillus niger, Aureobasidium pullulans, Alternaria tenuis, Penicillim citrinum, Stachybotrys atra, Paecilamyces varioti, Cladosporium herbarum, Aspergillus ustus and Aspergillus flavus.
The contaminated dishes are kept at 28° to 30° C. and 90 to 95% relative atmospheric humidity, and are evaluated after 3 weeks. Paint films are regarded as mould-resistant if the samples remain free from fungi after these tests.
A commercially available lacquer paint based on alkyd resin is tested for mould-resistance by the above-mentioned test method.

A further assay relates to Trichoderma viride. In words: MIC on agar, Trichoderma viride. Particulars: 336 h, beerwort/peptone agar, 28° C., 2 weeks. It is filed as cell-based. Here is the method:
as §1

In general, MIC refers to the least concentration at which growth counts as inhibited. `CC1=C(C)C(=O)N(SC(F)(Cl)Cl)C1=O` [N-(dichlorofluoromethylthio)-3,4-dimethylmaleimide]: the MIC in the assay with Aureobasidium pullulans is 0.5 µg/mL (≈ 1.94 µM); in the assay on slime organisms, 7.5 µg/mL (≈ 29.1 µM); in the assay with Sclerophoma pityophila, 1 µg/mL (≈ 3.87 µM); against Alternaria tenuis, 0.75 µg/mL (≈ 2.91 µM); against Chaetomium globosum it was 50 µg/mL (≈ 194 µM); with Polyporus versicolor, 7.5 µg/mL (≈ 29.1 µM). Further, the MIC with Aspergillus niger was 50 µg/mL (≈ 194 µM); against Penicillium glaucum it was 5 µg/mL (≈ 19.4 µM); with Lentinus tigrinus it was 1.5 µg/mL (≈ 5.81 µM); against Coniophora puteana it was 0.75 µg/mL (≈ 2.91 µM); against Trichoderma viride, 100 µg/mL (≈ 387 µM). Besides, the “mould-resistance of paint films” value in [1] was “mould-resistant”.
